The IC50 is the point on the concentration scale where inhibition reaches its midpoint.

What all share (format): biochemical
Assay [1] has as its target Pim-1 (Homo sapiens (Human), UniProt P11309). The assay can be described thus: Pim-1 kinase assay. The note with it: 1 mM ATP; read-out: Pim1 IC50. On the procedure: Supplementation of the STOP buffer with beads and stopping the reactions were done under reduced light. Prior to the stopping reactions STOP buffer with beads was pre-incubated for 1 h in the dark at room temperature. After stopping the reactions, plates were incubated for 1 h in the dark at room temperature before reading on a PHERAstar FS plate reader (BMG Labtech) under reduced light.

The target in assay [2] is Pim-2 (Homo sapiens (Human), UniProt Q9P1W9). The assay can be described thus: Pim-2 kinase assay. Conditions: 1 mM ATP; read-out: Pim2 IC50. As for the experimental part: Pim-2 kinase assay-20 μL reactions were run in white 384 well polystyrene plates dotted with 0.8 μL compound/DMSO in the assay buffer (50 mM Tris, pH 7.5, 0.01% Tween-20, 5 mM MgCl2, 0.01% BSA, 5 mM DTT), containing 0.05 μM Fluorescein-labeled CREBtide peptide substrate (Invitrogen PV3508), 1 mM ATP, and 1 nM enzyme (Invitrogen PV3649) for 2 h at 25° C. Reactions were stopped by addition of 10 μL TR-FRET Dilution Buffer (Invitrogen PV3574) with 30 mM EDTA and 1.5 nM LanthaScreen Tb-CREB pSer133 antibody (Invitrogen PV3566). After 30 min. incubation at room temperature, plates were read on a PHERAstar FS plate reader (BMG Labtech).
Although the above in vitro assays are conducted at 1 mM ATP compounds can also be evaluated for potency and in vitro activity against PIM targets utilizing Km conditions, where the concentration of ATP is set to the Km value and the assay is more sensitive to PIM inhibition activity.

Assay [3] concerns the target Pim-3 (Homo sapiens (Human), UniProt Q86V86). The assay can be described thus: Pim-3 kinase assay. Conditions: 1 mM ATP; read-out: Pim3 IC50. As for the experimental part: Pim-1 and Pim-3 kinase assays-20 μL reactions were run in white 384 well polystyrene plates dotted with 0.8 μL compound/DMSO in the assay buffer (50 mM Tris, pH 7.5, 0.01% Tween-20, 5 mM MgCl2, 0.01% BSA, 5 mM DTT), containing 0.05 μM Biotin-labeled BAD peptide substrate (AnaSpec 62269), 1 mM ATP, and […] (Pim-1, Invitrogen PV3503) or […] (Pim-3, Millipore 14-738) enzyme for 1 h at 25° C. Reactions were stopped by addition of 10 μL STOP Buffer (150 mM Tris, pH=7.5, 150 mM NaCl, 75 mM EDTA, 0.01% Tween-20, 0.3% BSA) supplemented with Phospho-Bad (Ser112) Antibody (Cell Signaling 9291) diluted 666-fold, and Streptavidin donor beads (PerkinElmer 6760002) along with Protein-A acceptor beads (PerkinElmer 6760137) at 15 μg/mL each. Supplementation of the STOP buffer with beads and stopping the reactions were done under reduced light. Prior to the stopping reactions STOP buffer with beads was pre-incubated for 1 h in the dark at room temperature. After stopping the reactions, plates were incubated for 1 h in the dark at room temperature before reading on a PHERAstar FS plate reader (BMG Labtech) under reduced light.

Chain of Pim-2 (Q9P1W9 whole entry): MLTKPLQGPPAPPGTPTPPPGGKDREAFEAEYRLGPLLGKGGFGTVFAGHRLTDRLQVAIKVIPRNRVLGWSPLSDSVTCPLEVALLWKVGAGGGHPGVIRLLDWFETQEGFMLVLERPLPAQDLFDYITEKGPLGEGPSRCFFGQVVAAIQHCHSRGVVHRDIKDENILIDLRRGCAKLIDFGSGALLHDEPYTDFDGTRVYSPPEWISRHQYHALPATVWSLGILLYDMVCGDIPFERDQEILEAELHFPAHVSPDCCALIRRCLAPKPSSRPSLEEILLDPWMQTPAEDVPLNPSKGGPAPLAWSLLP
Chain of Pim-1 (P11309 whole entry): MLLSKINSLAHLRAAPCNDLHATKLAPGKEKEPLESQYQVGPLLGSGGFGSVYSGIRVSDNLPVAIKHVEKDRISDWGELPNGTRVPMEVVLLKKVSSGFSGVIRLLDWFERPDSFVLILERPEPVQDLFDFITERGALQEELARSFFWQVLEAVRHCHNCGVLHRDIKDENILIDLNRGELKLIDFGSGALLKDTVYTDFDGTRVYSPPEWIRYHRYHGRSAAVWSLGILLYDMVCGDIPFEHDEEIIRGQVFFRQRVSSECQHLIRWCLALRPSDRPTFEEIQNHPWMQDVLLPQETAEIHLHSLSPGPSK

Take `C[C@@H]1C[C@H](N)CN(c2c(NC(=O)c3ccc(F)c(-c4c(F)cccc4F)n3)cnc3c2CCC3O)C1` (single isomer, unassigned) [45 (Diastereoisomer 2)]: the IC50 in assay [1], in assay [2] and in assay [3] was at most 100 nM throughout.

Consider `Nc1sc(-c2c(F)cccc2F)nc1C(=O)Nc1cnc2c(c1N1CC[C@H](O)[C@@H](N)C1)CCC2` (single isomer, unassigned) [Example 24, 5-Amino-N-{4-[3,4-trans-3-amino-4-hydroxypiperidin-1-yl]-6,7-dihydro-5H-cyclopenta[b]pyridin-3-yl}-2-(2,6-difluorophenyl)-1,3-thiazole-4-carboxamide], for which the IC50 in assay [1] was at most 100 nM; in assay [2], above 2000 nM; in assay [3], at most 100 nM.

With `N[C@H]1CCCN(c2c(NC(=O)c3ccc(F)c(-c4c(F)cccc4F)n3)cnc3c2CCC3O)C1` (single isomer, unassigned) [22 (Diastereoisomer 2)], the IC50 in assay [1], in assay [2] and in assay [3] was at most 100 nM throughout.

`C[C@H]1CN(c2c(NC(=O)c3ccc(F)c(-c4c(F)cc(OC5CCCOC5)cc4F)n3)cnc3c2CCO3)C[C@@H](N)[C@@H]1O` (stereo partly drawn) [Example 69, N-{4-[(3R,4R,5S)-3-amino-4-hydroxy-5-methylpiperidin-1-yl]-2,3-dihydrofuro[2,3-b]pyridin-5-yl}-6-[2,6-difluoro-4-(tetrahydro-2H-pyran-3-yloxy)phenyl]-5-fluoropyridine-2-carboxamide]: the concentration for half-maximal inhibition (IC50) in assay [1], in assay [2] and in assay [3] was at most 100 nM each time.

With `COC1CCc2c1ncc(NC(=O)c1nc(-c3c(F)cccc3F)sc1N)c2N1CCC[C@H](N)C1` (stereo partly drawn) [Example 17, 5-Amino-N-{4-[(3S)-3-aminopiperidin-1-yl]-7-methoxy-6,7-dihydro-5H-cyclopenta[b]pyridin-3-yl}-2-(2,6-difluorophenyl)-1,3-thiazole-4-carboxamide], the IC50 in assay [1] was at most 100 nM; in assay [2], 100 to 1000 nM; in assay [3], at most 100 nM.

`C[C@@H]1C[C@H](N)CN(c2c(NC(=O)c3ccc(F)c(-c4c(F)cc([S+](C)[O-])cc4F)n3)cnc3c2CCC3O)C1` (single isomer, unassigned) [60 (Diastereoisomer 2)]: the IC50 is at most 100 nM in assay [1], 100 to 1000 nM in assay [2] and at most 100 nM in assay [3].

Consider `COc1ccc(F)c(-c2nc(C(=O)Nc3cnc4c(c3N3CCC[C@H](N)C3)CCC4O)ccc2F)c1F` (single isomer, unassigned) [55 (Diastereoisomer 2)], for which the IC50 in assay [1], in assay [2] and in assay [3] was at most 100 nM in each case.

Turning to `N#CC1CCc2c1ncc(NC(=O)c1nc(-c3c(F)cccc3F)sc1N)c2N1CCC[C@H](N)C1` (single isomer, unassigned) [18 (Diastereoisomer 2)], the IC50 was at most 100 nM in assay [1], 100 to 1000 nM in assay [2] and at most 100 nM in assay [3].

`Nc1ncc(-c2c(F)cccc2F)nc1C(=O)Nc1cnc2c(c1N1CCC[C@H](N)C1)CCC2O` (single isomer, unassigned) [62 (Diastereoisomer 1)]: the IC50 is at most 100 nM in assay [1], 100 to 1000 nM in assay [2] and at most 100 nM in assay [3].

Regarding `C[C@@H]1C[C@H](N)CN(c2c(NC(=O)c3nc(-c4c(F)cccc4F)sc3N)cnc3c2CCC3O)C1` (single isomer, unassigned) [47 (Diastereoisomer 1)], the half-maximal inhibitory concentration (IC50) in assay [1], in assay [2] and in assay [3] was at most 100 nM in each case.

As to `Nc1cc(F)c(-c2c(F)cccc2F)nc1C(=O)Nc1cnc2c(c1N1CCC[C@H](N)C1)CCC2O` (single isomer, unassigned) [23 (Diastereoisomer 1)], the IC50 in assay [1], in assay [2] and in assay [3] was at most 100 nM in each case.

Regarding `Nc1sc(-c2c(F)cccc2F)nc1C(=O)Nc1cnc2sccc2c1N1CCC[C@H](N)C1` [Example 3, 5-Amino-N-{4-[(3S)-3-aminopiperidin-1-yl]thieno[2,3-b]pyridin-5-yl}-2-(2,6-difluorophenyl)-1,3-thiazole-4-carboxamide], the IC50 in assay [1], in assay [2] and in assay [3] was at most 100 nM throughout.

For the compound `C[C@H]1CN(c2c(NC(=O)c3ccc(F)c(-c4c(F)cccc4F)n3)cnc3c2CCO3)C[C@@H](N)[C@@H]1O` [Example 41, N-{4-[(3R,4R,5S)-3-Amino-4-hydroxy-5-methylpiperidin-1-yl]-2,3-dihydrofuro[2,3-b]pyridin-5-yl}-6-(2,6-difluorophenyl)-5-fluoropyridine-2-carboxamide], the IC50 in assay [1], in assay [2] and in assay [3] was at most 100 nM each time.

Regarding `COc1ccc(F)c(-c2nc(C(=O)Nc3cnc4c(c3N3C[C@H](C)C[C@H](N)C3)CCC4O)c(N)s2)c1F` (single isomer, unassigned) [54 (Diastereoisomer 2)], the IC50 in assay [1], in assay [2] and in assay [3] was at most 100 nM throughout.

For `N[C@H]1CCCN(c2c(NC(=O)c3csc(-c4c(F)cccc4F)n3)cnc3[nH]ncc23)C1` [Example 35, N-{4-[(3S)-3-aminopiperidin-1-yl]-1H-pyrazolo[3,4-b]pyridin-5-yl}-2-(2,6-difluorophenyl)-1,3-thiazole-4-carboxamide], the IC50 in assay [1] was above 40 nM; in assay [2] it was above 2000 nM; in assay [3], above 40 nM.

For `C[S+]([O-])c1cc(F)c(-c2nc(C(=O)Nc3cnc4c(c3N3CCC[C@H](N)C3)CCC4O)ccc2F)c(F)c1` (single isomer, unassigned) [59 (Diastereoisomer 1)], the IC50 was at most 100 nM in assay [1], 100 to 1000 nM in assay [2] and at most 100 nM in assay [3].

Regarding `COc1ccc(F)c(-c2nc(C(=O)Nc3cnc4c(c3N3CCC[C@H](N)C3)CCC4O)c(N)s2)c1F` (single isomer, unassigned) [53 (Diastereoisomer 2)], the IC50 in assay [1], in assay [2] and in assay [3] was at most 100 nM each time.

Take `C[C@H]1CN(c2c(NC(=O)c3nc(-c4c(F)cccc4F)c(F)cc3N)cnc3c2CCC3O)C[C@@H](N)[C@@H]1O` (single isomer, unassigned) [48 (Diastereoisomer 1)]: the IC50 in assay [1] is at most 100 nM; in assay [2], 100 to 1000 nM; in assay [3], at most 100 nM.

As to `Nc1cc(F)c(-c2c(F)cccc2F)nc1C(=O)Nc1cnc2c(c1N1CCC[C@H](N)C1)CCO2` [Example 12, 3-Amino-N-{4-[(3S)-3-aminopiperidin-1-yl]-2,3-dihydrofuro[2,3-b]pyridin-5-yl}-6-(2,6-difluorophenyl)-5-fluoropyridine-2-carboxamide], the IC50 in assay [1], in assay [2] and in assay [3] was at most 100 nM each time.

Regarding `CC1(O)CCc2c1ncc(NC(=O)c1nc(-c3c(F)cccc3F)sc1N)c2N1CCC[C@H](N)C1` (single isomer, unassigned) [19 (Diastereoisomer 1)], the IC50 is at most 100 nM in assay [1], above 2000 nM in assay [2] and 100 to 1000 nM in assay [3].

With `C[C@H]1CN(c2c(NC(=O)c3nc(-c4c(F)cccc4F)c(F)cc3N)cnc3c2CCC3O)C[C@@H](N)[C@@H]1O` (single isomer, unassigned) [48 (Diastereoisomer 2)], the IC50 in assay [1], in assay [2] and in assay [3] was at most 100 nM in each case.

On to `Nc1sc(-c2c(F)cccc2F)nc1C(=O)Nc1cnc2c(c1N1C[C@@H](N)C[C@@H](C(F)(F)F)C1)CCC2O` (single isomer, unassigned) [44 (Diastereoisomer 2)], for which the IC50 in assay [1], in assay [2] and in assay [3] was at most 100 nM each time.

Consider `CCOc1cc(F)c(-c2nc(C(=O)Nc3cnc4c(c3N3C[C@@H](N)[C@H](O)[C@@H](C)C3)CCC4O)ccc2F)c(F)c1` (single isomer, unassigned) [51 (Diastereoisomer 1)], for which the IC50 in assay [1], in assay [2] and in assay [3] was at most 100 nM each time.

Source of the values: patent US10265307B2, “Thiazolecarboxamides and pyridinecarboxamide compounds useful as Pim kinase inhibitors” (Incyte Corporation, priority 2013, dated 2019).
